Values of other authors as cited in patent publication US5714342A, “Compositions for the detection of protease in biological samples and methods of use therefo” (OncoImmunin, Inc., priority 1995, dated 1998).

Conditions: literature (Forster and Konig 1957; Arbeloa and Ojeda 1982); cited from earlier work

## O=C1OC2(c3ccccc31)c1cc(Br)c(O)c(Br)c1Oc1c2cc(Br)c(O)c1Br [Eosin]
  concentration at which ground-state dimerization of free dye in solution was observed: higher than 2.8×10^-2 M

## CCN(CC)c1ccc2c(-c3ccccc3C(=O)O)c3ccc(=[N+](CC)CC)cc-3oc2c1 [Rhodamine B]
  concentration at which ground-state dimerization of free dye in solution was observed: higher than 6×10^-4 M

## O=C1OC2(c3ccc(O)cc3Oc3cc(O)ccc32)c2ccccc21 [fluorescein]
  concentration at which ground-state dimerization of free dye in solution was observed: > 0.74 M
